{"source": "patent US20030073837A1", "about": "“3-HETEROARYLIDENYL-2-INDOLINONE COMPOUNDS FOR MODULATING PROTEIN KINASE ACTIVITY AND FOR USE IN CANCER CHEMOTHERAPY” (priority 1998, published 2003)", "key": {"[1]": {"tested_on": "ATP binding site of the receptor tyrosine kinase", "assay": "Washout experiments in vitro"}, "tumor growth": {"tested_on": "tumor growth", "assay": "Less frequent intraperitoneal dosing studies in athymic mice", "assay_type": "in vivo", "details": "for tumor growth inhibition: intraperitoneal", "description": "The ability of human tumors to grow as xenografts in athymic mice (e.g., Balb/c, nu/nu) provides a useful in vivo model for studying the biological response to therapies for human tumors. Since the first successful xenotransplantation of human tumors into athymic mice, (Rygaard and Povlsen, 1969, Acta Pathol. Microbial. Scand. 77:758-760), many different human tumor cell lines (e.g., mammary, lung, genitourinary, gastrointestinal, head and neck, glioblastoma, bone, and malignant melanomas) have been transplanted and successfully grown in nude mice. The following assays may be used to determine the level of activity, specificity and effect of the different compounds of the present invention. Three general types of assays are useful for evaluating compounds: cellular/catalytic, cellular/biological and in vivo. The object of the cellular/catalytic assays is to determine the effect of a compound on the ability of a TK to phosphorylate tyrosines on a known substrate in a cell. The object of the cellular/biological assays is to determine the effect of a compound on the biological response stimulated by a TK in a cell. The object of the in vivo assays is to determine the effect of a compound in an animal model of a particular disorder such as cancer. […]\n(§1) Cell lines are grown in appropriate medium (for example, MEM, DMEM, Ham's F10, or Ham's F12 plus 5%-10% fetal bovine serum (FBS) and 2 mM glutamine (GLN)). […] All cell lines are routinely subcultured twice a week and are negative for mycoplasma as determined by the Mycotect method (Gibco).\n(§2) Cells are harvested at or near confluency with 0.05% Trypsin-EDTA and pelleted at 450×g for 10 min. […] Tumor growth is measured over 3 to 6 weeks using venier calipers. Tumor volumes are calculated as a product of length×width×height unless otherwise indicated. P values are calculated using the Students t-test. […]"}, "[2]": {"assay": "Subchronic toxicokinetic study (28 day toxicity study), rats", "assay_type": "in vivo"}, "[3]": {"assay": "In vivo intravenous pharmacokinetics, dogs"}, "[4]": {"assay": "In vivo intravenous pharmacokinetics, rats"}, "[5]": {"tested_on": "tumor cells implanted under the serosa of the colon", "assay": "Tumor cells surgically implanted under the serosa of the colon", "assay_type": "in vivo, mice", "experimental": "8 week old nude mice (female) (Simonsen Inc.) are used as experimental animals. Implantation of tumor cells can be performed in a laminar flow hood. For anesthesia, Xylazine/Ketamine Cocktail (100 mg/kg ketamine and 5 mg/kg Xylazine) are administered intraperitoneally. A midline incision is done to expose the abdominal cavity (approximately 1.5 cm in length) to inject 10^7 tumor cells in a volume of 100 μl medium. The cells are injected either into the duodenal lobe of the pancreas or under the serosa of the colon. The peritoneum and muscles are closed with a 6-0 silk continuous suture and the skin is closed by using wound clips. Animals are observed daily.\nAfter 2-6 weeks, depending on gross observations of the animals, the mice are sacrificed, and the local tumor metastases to various organs (lung, liver, brain, stomach, spleen, heart, muscle) are excised and analyzed (measurement of tumor size, grade of invasion, immunochemistry, in situ hybridization determination, etc.)."}, "[6]": {"tested_on": "endothelial cells induced by VEGF", "assay": "In vitro proliferation of endothelial cells induced by VEGF (HUV-EC-C assay)", "assay_type": "cell-based, human", "experimental": "The following protocol may also be used to measure a compound's activity against PDGF-R, FGF-R, VEGF, aFGF or Flk-1/KDR, all of which are naturally expressed by HUV-EC cells.\n1. Wash and trypsinize HUV-EC-C cells (human umbilical vein endothelial cells, (American Type Culture Collection; catalogue no. 1730 CRL). Wash with Dulbecco's phosphate-buffered saline (D-PBS; obtained from Gibco BRL; catalogue no. 14190-029) 2 times at about 1 ml/10 cm^2 of tissue culture flask. Trypsinize with 0.05% trypsin-EDTA in non-enzymatic cell dissociation solution (Sigma Chemical Company; catalogue no. C-1544). The 0.05% trypsin is made by diluting 0.25% trypsin/1 mM EDTA (Gibco; catalogue no. 25200-049) in the cell dissociation solution. Trypsinize with about 1 ml/25-30 cm^2 of tissue culture flask for about 5 minutes at 37° C. After cells have detached from the flask, add an equal volume of assay medium and transfer to a 50 ml sterile centrifuge tube (Fisher Scientific; catalogue no. 05-539-6).\n2. Wash the cells with about 35 ml assay medium in the 50 ml sterile centrifuge tube by adding the assay medium, centrifuge for 10 minutes at approximately 200×g, aspirate the supernatant, and resuspend with 35 ml D-PBS. Repeat the wash two more times with D-PBS, resuspend the cells in about 1 ml assay medium/15 cm^2 of tissue culture flask. […]"}, "[7]": {"tested_on": "a variety of tumor cell lines subcutaneously implanted", "assay": "Subcutaneous tumor implants in immunocompromised mice", "assay_type": "in vivo", "description": "(§3) The ability of human tumors to grow as xenografts in athymic mice (e.g., Balb/c, nu/nu) provides a useful in vivo model for studying the biological response to therapies for human tumors. Since the first successful xenotransplantation of human tumors into athymic mice, (Rygaard and Povlsen, 1969, Acta Pathol. Microbial. Scand. 77:758-760), many different human tumor cell lines (e.g., mammary, lung, genitourinary, gastrointestinal, head and neck, glioblastoma, bone, and malignant melanomas) have been transplanted and successfully grown in nude mice. The following assays may be used to determine the level of activity, specificity and effect of the different compounds of the present invention. […]\nas §1, §2"}, "[8]": {"tested_on": "a variety of tumor cell lines", "assay": "Direct inhibitory effect on tumor cell lines in vitro", "assay_type": "cell-based", "details": "concentrations up to 50 μM"}, "[9]": {"tested_on": "β-450 liver enzymes (CYP1A2 and CYP3A4)", "assay": "In vitro metabolism studies", "assay_type": "in vitro ADME"}, "[10]": {"assay": "In vivo intravenous pharmacokinetics, mice"}, "[11]": {"assay": "Phase 1 study pharmacokinetics in patients with advanced malignancies", "details": "for half-life: plasma, intravenous"}, "[12]": {"assay": "Phase I dose escalation studies, toxicity", "assay_type": "in vivo", "details": "patients treated with up to 52 weeks of treatment"}, "human melanoma cells": {"tested_on": "human melanoma cells", "assay": "Dose response study, human melanoma cells subcutaneous in athymic mice", "assay_type": "in vivo", "details": "daily administration, doses as low as 1 mg/kg/day", "description": "as §3, §1, §2"}, "[13]": {"assay": "Subchronic toxicokinetic study (28 day toxicity study), dogs", "assay_type": "in vivo"}, "FLK-1 receptor": {"tested_on": "FLK-1 receptor", "assay": "Cellular-based assay of receptor phosphorylation following VEGF (FLK-1 ELISA)", "assay_type": "cell-based"}, "[14]": {"assay": "Whole body autoradiography and excretion after intravenous injection", "assay_type": "in vivo", "details": "in 24 hours, 14C-labeled"}, "[15]": {"tested_on": "metastatic colorectal cancer", "details": "single agent; cited from earlier work"}, "[16]": {"tested_on": "advanced metastatic colorectal cancer", "details": "cited from earlier work"}, "[17]": {"details": "cited from earlier work"}}, "note": "Read-outs that look alike come from different tables or passages of the source."}
{"molecule": "Cc1cc(C)c(/C=C2\\C(=O)Nc3ccccc32)[nH]1", "note": "[3-[(2,4-dimethylpyrrol-5-yl)methylidenyl]-2-indolinone]", "values": [{"measurement": "target half-life", "setting": "[1]", "result": 96, "unit": "h"}, {"measurement": "tumor growth inhibition and toxicity with interval dosing", "setting": "tumor growth; dosing at 3 to 4 day intervals", "result": "sufficient to inhibit tumor growth without toxicity"}, {"measurement": "tumor growth inhibition", "setting": "tumor growth; daily dosing", "result": 68, "unit": "%"}, {"measurement": "tumor growth inhibition", "setting": "tumor growth; twice weekly dosing for four weeks", "result": 77, "unit": "%"}, {"measurement": "accumulation in plasma upon repeated administration", "setting": "[2]", "result": "did not accumulate in plasma"}, {"measurement": "elimination of the parent compound from the circulation", "setting": "[3]", "result": "rapid elimination"}, {"measurement": "elimination of the parent compound from the circulation", "setting": "[4]; intravenous", "result": "rapid elimination"}, {"measurement": "elimination half-life versus dose", "setting": "[4]; intravenous 29.5-97.9 mg/m^2", "result": "linearly increases as the dose increased"}, {"measurement": "increase of AUC", "setting": "[4]; intravenous 29.5-97.9 mg/m^2, with a 3-fold increase in dose", "result": 10, "unit": "fold"}, {"measurement": "growth of tumor cells implanted under the serosa of the colon", "setting": "[5]; daily administration 25 mg/kg/day", "result": "significantly inhibit the growth"}, {"measurement": "tumor vascularization", "setting": "[5]; pale appearance of tumors in treated animals", "result": "decreased vascularization"}, {"measurement": "IC50", "setting": "[6]; Homo sapiens, Endothelial cell, read-out: IC50, inhibition of in vitro proliferation of endothelial cells induced by VEGF", "result": "~70", "unit": "nM"}, {"measurement": "exposure to drug after which detectable activity is first observed", "setting": "[6]; time-dependent increase in potency", "result": 5, "unit": "min"}, {"measurement": "suppression of tumor growth with delayed administration", "setting": "[7]; administration delayed until tumors approximately 50 mm^3, versus start on Day 1", "result": "equivalent efficacy"}, {"measurement": "inhibition of tumor growth", "setting": "[7]; daily intraperitoneal dosing 12.5-25 mg/kg/day for 28 days", "result": "30-80%"}, {"measurement": "direct inhibitory effects on tumor cell lines", "setting": "[8]", "result": "no direct inhibitory effects"}, {"measurement": "metabolizing enzymes", "setting": "[9]", "result": "metabolized via β-450 liver enzymes, most probably via CYP1A2 and CYP3A4"}, {"measurement": "elimination of the parent compound from the circulation", "setting": "[10]", "result": "rapid elimination"}, {"measurement": "increase of the rate of clearance", "setting": "[11]; after eight infusions, all patients", "result": "50-300%"}, {"measurement": "total distributive volume", "setting": "[11]; calculated by a one-compartment model", "result": "53.6 ± 11.3", "unit": "L"}, {"measurement": "clearance versus dose", "setting": "[11]; doses 4.4-190 mg/m^2", "result": "independent of dose"}, {"measurement": "AUC and CMAX versus dose", "setting": "[11]; doses tested in humans to date", "result": "increase linearly with dose"}, {"measurement": "individual clearance calculated based on BSA", "setting": "[11]; human, in vivo", "result": "41.8±22.1", "unit": "L/hour/m2"}, {"measurement": "half-life", "setting": "[11]; human, alpha half-life, mean, doses 4.4-190 mg/m^2", "result": "5.8 ± 1.9", "unit": "min"}, {"measurement": "half-life", "setting": "[11]; human, beta half-life or elimination phase, mean, doses 4.4-190 mg/m^2", "result": "43.4 ± 21.9", "unit": "min"}, {"measurement": "half-life", "setting": "[11]; human, beta half-life or elimination phase, range, doses 4.4-190 mg/m^2", "result": "10 to 111", "unit": "min"}, {"measurement": "half-life", "setting": "[11]; human, half-life in humans, doses 4.4-190 mg/m^2, preliminary", "result": "~60", "unit": "min"}, {"measurement": "cumulative toxicity", "setting": "[12]", "result": "no cumulative toxicity was observed"}, {"measurement": "inhibition of human melanoma cells", "setting": "human melanoma cells", "result": "dose-dependent inhibition"}, {"measurement": "accumulation in plasma upon repeated administration", "setting": "[13]", "result": "did not accumulate in plasma"}, {"measurement": "receptor phosphorylation that follows the interaction of VEGF with its receptor", "setting": "FLK-1 receptor", "result": "inhibit the receptor phosphorylation"}, {"measurement": "excreted in feces", "setting": "[14]", "result": 72, "unit": "%"}, {"measurement": "excreted in urine", "setting": "[14]", "result": 16, "unit": "%"}, {"measurement": "total dose recovered", "setting": "[14]", "result": "92 % of the total administered dose"}]}
{"molecule": "O=c1[nH]cc(F)c(=O)[nH]1", "note": "[fluorouracil, 5-fluoro-2,4 (1H,3H)-pyrimidinedione]", "values": [{"measurement": "median survival", "setting": "[15]", "result": "six"}, {"measurement": "response rate", "setting": "[15]", "result": "about 15%"}, {"measurement": "median survival time", "setting": "[16]; fluorouracil alone 500 mg/m^2", "result": 7.7, "unit": "months"}, {"measurement": "response rate", "setting": "[16]; fluorouracil alone 500 mg/m^2 daily for 5 days every 28-35 days", "result": 10, "unit": "%"}, {"measurement": "excreted in urine", "setting": "[17]; in vivo", "result": "Less than 10%"}, {"measurement": "plasma levels", "setting": "[17]; within 2 hours, intravenous bolus 370 to 720 mg/m^2", "result": "below 1 μM"}]}
